ChEMBL document CHEMBL4842333, “Catechol-Bearing Polyketide Derivatives from Sparticola junci” (2021)
≈ marks a conversion by molar mass, not a printed value. Calls of active or inactive are those of the source. No cut-off for these calls is given here.

Tests used:
Candida albicans = test: Antifungal activity against Candida albicans DSM1665 assessed as inhibition of fungal growth by broth microdilution method; format: functional, organism-based
Mucor hiemalis = test: Antifungal activity against Mucor hiemalis DSM2656 assessed as inhibition of fungal growth by broth microdilution method; format: functional, organism-based
Wickerhamomyces anomalus = test: Antifungal activity against Pichia anomala DSM6766 assessed as inhibition of fungal growth by broth microdilution method; format: functional, organism-based
Rhodotorula glutinis = test: Antifungal activity against Rhodotorula glutinis DSM1034 assessed as inhibition of fungal growth by broth microdilution method; format: functional, organism-based
[1] = test system: Schizosaccharomyces pombe; test: Antifungal activity against Schizosaccharomyces pombe DSM70572 assessed as inhibition of fungal growth by broth microdilution method; format: functional, organism-based
Staphylococcus aureus = test: Antibacterial activity against Staphylococcus aureus DSM346 assessed as inhibition of bacterial growth by broth microdilution method; format: functional
L929 = test: Cytotoxicity against mouse L929 cells assessed as cell growth inhibition incubated for 5 days by MTT assay; format: functional, cell-based; details: time 5.0 day
KB 3-1 = test: Cytotoxicity against human KB 3-1 cells assessed as cell growth inhibition incubated for 5 days by MTT assay; format: functional, cell-based; details: time 5.0 day
A-431 = test: Cytotoxicity against human A-431 cells assessed as cell growth inhibition incubated for 5 days by MTT assay; format: functional, cell-based; details: time 5.0 day
A549 = test: Cytotoxicity against human A549 cells assessed as cell growth inhibition incubated for 5 days by MTT assay; format: functional, cell-based; details: time 5.0 day
SK-OV-3 = test: Cytotoxicity against human SK-OV-3 cells assessed as cell growth inhibition incubated for 5 days by MTT assay; format: functional, cell-based; details: time 5.0 day
PC-3 = test: Cytotoxicity against human PC-3 cells assessed as cell growth inhibition incubated for 5 days by MTT assay; format: functional, cell-based; details: time 5.0 day
MCF7 = test: Cytotoxicity against human MCF7 cells assessed as cell growth inhibition incubated for 5 days by MTT assay; format: functional, cell-based; details: time 5.0 day
Bacillus subtilis = test: Antibacterial activity against Bacillus subtilis DSM10 assessed as inhibition of bacterial growth by broth microdilution method; format: functional
[2] = test system: Chromobacterium violaceum; test: Antibacterial activity against Chromobacterium violaceum DSM30191 assessed as inhibition of bacterial growth by broth microdilution method; format: functional
Escherichia coli = test: Antibacterial activity against Escherichia coli DSM1116 assessed as inhibition of bacterial growth by broth microdilution method; format: functional
Kocuria rhizophila = test: Antibacterial activity against Kocuria rhizophila DSM1790 assessed as inhibition of bacterial growth by broth microdilution method; format: functional
[3] = test system: Mycolicibacterium smegmatis; test: Antimycobacterial activity against Mycobacterium smegmatis ATCC700084 assessed as inhibition of mycobacterial growth by broth microdilution method; format: functional

Row | Compound | MIC (Staphylococcus aureus) | Activity (L929) | Activity (KB 3-1) | Activity (A-431) | Activity (A549) | Activity (SK-OV-3) | Activity (PC-3) | Activity (MCF7) | further results
1 | NYSTATIN | – | – | – | – | – | – | – | – | MIC (Candida albicans): 2.1 µg/mL; MIC (Mucor hiemalis): 8.3 µg/mL; MIC (Wickerhamomyces anomalus): 2.1 µg/mL; MIC (Rhodotorula glutinis): 1 µg/mL; MIC [1]: 16.7 µg/mL
2 | COC(=O)C[C@H](O)C1(c2cccc(O)c2O)Oc2cccc3cccc(c23)O1 | 66.6 µg/mL (≈ 174 µM) | inactive | inactive | inactive | inactive | inactive | inactive | inactive | –
3 | O=C(O)C[C@H](O)C1(c2cccc(O)c2O)Oc2cccc3cccc(c23)O1 | 66.6 µg/mL (≈ 181 µM) | inactive | inactive | inactive | inactive | inactive | inactive | inactive | –
4 | CN(C)[C@@H]1C(O)=C(C(N)=O)C(=O)[C@@]2(O)C(O)=C3C(=O)c4c(O)cccc4[C@@](C)(O)[C@H]3[C@H](O)[C@@H]12.Cl [OXYTETRACYCLINE HYDROCHLORIDE] | 0.1 µg/mL | – | – | – | – | – | – | – | MIC (Bacillus subtilis): 4.2 µg/mL; MIC [2]: 0.4 µg/mL; MIC (Escherichia coli): 1.7 µg/mL; MIC (Kocuria rhizophila): 0.4 µg/mL
5 | NC[C@H]1O[C@H](O[C@H]2[C@H](O)[C@@H](O[C@H]3O[C@H](CO)[C@@H](O)[C@H](N)[C@H]3O)[C@H](N)C[C@@H]2N)[C@H](N)[C@@H](O)[C@@H]1O [BEKANAMYCIN] | – | – | – | – | – | – | – | – | MIC [3]: 2.1 µg/mL (≈ 4.34 µM)
